Experimental findings from ChEMBL document CHEMBL5137013 (Eur J Med Chem, 2022) are described below.

The structures appear in SMILES notation.

The nature of assay [1]: Resistance index, ratio of IC50 for human MCF7/TxR cells to IC50 for human MCF7 cells. The class given is functional.
The nature of assay [2]: Inhibition of porcine brain tubulin polymerization measured at 1 min interval for 60 mins by fluorescence assay. On the set-up: species or system Sus scrofa.
Assay [3] has as its system HT-29. Briefly: Cytotoxicity against human HT-29 cells assessed as reduction in cell viability measured after 24 hrs by MTT assay. To be noted: HT-29, 24 h. Format: functional, cell-based. In general terms: Formazan colour is commonly taken as a measure of viable cells.
Assay [4] in a line: Cytotoxicity against human MCF7/TxR cells assessed as reduction in cell viability measured after 24 hrs by MTT assay. Format: functional, cell-based.
The next assay has as its system MDA-MB-231. Briefly: Cytotoxicity against human MDA-MB-231 cells assessed as reduction in cell viability measured after 24 hrs by MTT assay. The class given is functional, cell-based. To be noted: MDA-MB-231, 24 h.
The next assay concerns MCF7. Briefly: Cytotoxicity against human MCF7 cells assessed as reduction in cell viability measured after 24 hrs by MTT assay. Conditions: MCF7, 24 h.
Assay [5] in a line: Resistance index, ratio of IC50 for human A549/TxR cells to IC50 for human A549 cells. The class given is functional.
A further assay has as its system A549. Briefly: Cytotoxicity against human A549 cells assessed as reduction in cell viability measured after 24 hrs by MTT assay. Conditions: A549, 24 h.
For assay [6], the system named is HT-29. Briefly: Antitumor activity against human HT-29 cells xenografted in BALB/c nude mouse assessed as reduction in tumor weight at 20 mg/kg, ip administered as 2 days interval for 3 weeks and measured 3 weeks post-initial dosing relative to control. Format: functional. Also on record: scale not given: the % may be the effect or the level left. (Xenograft models place foreign cells or tissue in a host animal.)

Assay [7] is described as follows: Cytotoxicity against human A549/TxR cells assessed as reduction in cell viability measured after 24 hrs by MTT assay. The class given is functional, cell-based.
The next assay concerns HeLa. Briefly: Cytotoxicity against human HeLa cells assessed as reduction in cell viability measured after 24 hrs by MTT assay. The class given is functional, cell-based.

On to `COc1ccc(/C=C\c2cc(OC)c(OC)c(OC)c2)cc1O` [COMBRETASTATIN A4], for which the “Ratio IC50” value in [1] was 1.8; in assay [5], 2.1. The IC50 (usually the concentration that gives 50% inhibition) worked out at 1210 nM in assay [2]; 430 nM in the assay with HT-29 [3]; 17 nM in [4]; 13 nM in the assay with MDA-MB-231; 9 nM in the assay with MCF7; 46 nM in the assay with A549. The figures for the IC50 (in [7]; in the assay with HeLa) were 96 nM and 7 nM, respectively. The Activity in the assay with HT-29 [6] is on record as 17.4%.
